According to PMC7066135, “The lipoprotein Pal stabilises the bacterial outer membrane during constriction by a mobilisation-and-capture mechanism” (Nature Communications, 2020):
Ends that are not written are not given here. Peptide text beside a SMILES is read from it. * marks the point of attachment. FITC = O=C1OC2(c3ccc(O)cc3Oc3cc(O)ccc32)c2ccc(NC(=S)*)cc21

Experiments:
[1] = system: Pal-mCherry in E. coli cells; experiment: Fluorescence recovery after photobleaching (FRAP) of Pal-mCherry; format: cell-based; details: non-dividing cells, average from 30 cells
Description: Overnight supplemented M9-glucose (2 mM MgSO4, 0.1 mM CaCl2, 0.4% (w/v) D-glucose) cultures were diluted in fresh medium with appropriate antibiotics and IPTG for strains expressing TolA from plasmids. Cultures were grown at 37 °C to OD600 0.3. Cells were centrifuged at 7000 × g for 1 min, resuspended in 1 ml of fresh media and treated with CCCP (0.1 mM, RT for 5 min, Sigma #C2759) for PMF decoupling, sodium azide (50 µg ml^−1, RT for 30 min, Sigma #S2002) for ATPase inhibition or chloramphenicol (30 µg ml^−1, 37 °C for 30 min, Sigma #C0378) for translation inhibition. […]
Microscopy was performed on a Zeiss LSM 880/Axio Examiner Z1 motorised upright laser scanning microscope equipped with Argon multiline 458/488/514 nm (25 mW), and HeNe 561 nm (1 mW) and ×63 oil-immersion objective (Zeiss, NA 1.4) set to 37 °C. […] Two images were acquired before bleaching and ten images, with a time interval of 1 min, recorded after bleaching using an automatic time-course function. […] For all fluorescent images, corresponding differential interference contrast (DIC) images were recorded using transmitted light. All images were recorded using Zeiss Zen 2011 software.
All images were analysed using ImageJ software. Fluorescence distribution along x-axis of cells was determined by the plot profile function with a line width of 4 points for TIRFM images and 40 or 80 for FRAP images. […]

[2] = target: T1, TolA224-344 lacking its short C-terminal α-helix (Pseudomonas aeruginosa, UniProt P50600); experiment: Fluorescence anisotropy titration, FITC-labelled TolB peptide, helix-truncated TolA; format: binding, P. aeruginosa; details: versus wild-type TolA224-347
T1 construct: Open symbols, TolA224-344 lacking its short; His-tagged Im9 (fusion partner, factor Xa site) (N); made in house; host or cells: E. coli BL21 (DE3)
Description: Fluorescence anisotropy experiments were used to observe the change in overall anisotropy of P. aeruginosa TolB^22–34 fluorescein isothiocyanate (FITC) in complex with the C-terminal domain of TolA. A titration curve was recorded using 40 μl fractions in a 96-well, black absorbent, 100 μl plate, n = 3.
Experiments were carried out using either a CLARIOstar plate reader or a Fluoromax- 4 spectrofluorimeter (Horiba JobinYvon). Titrations were carried out between 0 and 1.2 mM TolA. […] FITC excitation wavelength used was 495 nm with an emission wavelength at 519 nm. All experiments were conducted in 50 mM Tris 100 mM NaCl pH 7.0 and used light-blocking tubes to minimize quenching.
(§1) Data were fitted using the manufac-turer ’s software assuming a 1:1 binding model, validated by the resulting structure for the complex. From three independent measurements, average values for ΔH […] (±0.24 standard deviation (SD)) kcal.mol-1, ΔS +11.8 (±2.14 SD) cal.K-1 […]
(§2) form of an isolated peptide. b, Binding of TolB22-34 to the C-terminal domain of 15N-labelled TolA224-347 from P. aeruginosa followed by changes in 1H, 15N-HSQC spectra, >80% of all TolA peaks were perturbed by TolB22-33 binding. Every peak was […]
(§3) and free (32%) TolA. […]
(§4) five-fold weaker binding than the E. coli complex. c, Fluorescence anisotropy binding curves for P. aeruginosa TolB22-33 binding the C-terminal domain of TolA. […]

[3] = target: T2, C-terminal domain of wild-type TolA (Pseudomonas aeruginosa, UniProt P50600); experiment: Stopped-flow fluorescence anisotropy, wild-type TolA; format: binding, P. aeruginosa
T2 construct: The C-terminal domain of Pseudomonas aeruginosa TolA (TolA^224–347) and its derivatives; His-tagged Im9 (fusion partner, factor Xa site) (N, cleaved yes); made in house; host or cells: E. coli BL21 (DE3)
Description: (§5) Experiments were conducted on an Applied Photophysics SX20 instrument set up for 1:1 single mixing and thermostated using a circulating water bath at 25 °C. All stopped-flow experiments were carried out in 50 mM Tris pH 7.0, 100 mM NaCl and under pseudo-first-order conditions. […] Monochromator entrance and exit slits were set to 2 mm. A total of 4000–10,000 data points were collected for each reaction. At least four anisotropy traces were collected for each reaction and averaged for each time-dependence fit. All anisotropy traces were fit to a single exponential rate equation. Each reaction concentration was collected in triplicate and validated using recombinant protein from different protein purifications. SigmaPlot was used for linear regression analysis to fit the dependence of kobs on the varied concentration of TolA. Titrations were performed at increasing concentration of protein relative to a constant concentration of peptide at 1 μM. Experiments were typically performed with 4–10-s data collection periods.
(§6) of mutations in vitro and in vivo. All in vitro measurements used the P. aeruginosa complex while all in vivo assays
(§7) binding a 100-fold excess of the C-terminal domain of wild-type TolA (red) and TolA with its C-terminal α-helix removed
(§8) tion yielding an observed rate (kobs). […]

[4] = target: T3, TolA with its C-terminal α-helix removed (Pseudomonas aeruginosa, UniProt P50600); experiment: Stopped-flow fluorescence anisotropy, helix-truncated TolA; format: binding, P. aeruginosa
T3 construct: Open symbols, TolA224-344 lacking its short; His-tagged Im9 (fusion partner, factor Xa site) (N); made in house; host or cells: E. coli BL21 (DE3)
Description: as §5, §6, §7, §8

TolA224-347 = target: T4, TolA224-347 (Pseudomonas aeruginosa, UniProt P50600); experiment: NMR titration (1H,15N-HSQC), TolB peptide binding 15N-labelled TolA; parameters: species or system P. aeruginosa; details: 1H,15N-HSQC spectra; slow chemical exchange
T4 construct: The C-terminal domain of Pseudomonas aeruginosa TolA (TolA^224–347) and its derivatives; His-tagged Im9 (fusion partner, factor Xa site) (N, cleaved yes); made in house; host or cells: E. coli BL21 (DE3)
Description: NMR experiments were carried out using spectrometers operating at ^1H frequencies ranging from 500 to 950 MHz. The spectrometers were equipped with Oxford Instruments magnets and home-built triple-resonance pulsed-field gradient probes (600, 750 and 950 MHz) or with Bruker Avance consoles and TCI CryoProbes (500 and 600 MHz). NMR data were acquired using either GE/Omega software using pulse sequences written in-house, or Topspin software and pulse sequences in the Topspin libraries from Bruker Biospin. All data processing was conducted using NMRPipe[49]. Processed spectra were visualized and assigned using the CCPN software suite. All NMR data were collected at 20 °C.
as §1, §2, §3, §4

[5] = target: E. coli TolB22-33 peptide; experiment: ITC
[6] = target: P. aeruginosa TolB^22–34 fluorescein isothiocyanate (FITC) (P. aeruginosa) (UniProt P50601); experiment: FP
Pal (Escherichia coli) = Pal (Escherichia coli) (UniProt P0A912); details: cited from earlier work
TolA (Escherichia coli) = TolA (Escherichia coli) (UniProt P19934); details: cited from earlier work
TolA-GFP at the divisome = experiment: 3D-SIM of TolA-GFP recruitment to the divisome; format: cell-based, E. coli; details: TolB I25A, I27A background versus wild-type TolB, expressed from plasmid; n = 30; Mann-Whitney U and t test
From the text: Live bacteria were mounted between an agarose pad and a coverslip. Imaging was processed at room temperature with a ×60, NA 1.42 oil objective on a Deltavision OMX V3 Blaze (GE) equipped with a 488 laser. Image stacks of several μm thickness were taken with 0.125 μm z-steps and 15 images (three angles and five phases per angle) per z-section and a 3D-structured illumination with stripe separation of 213 nm. Laser power was set at 10% to scan the sample over 4 µm thickness (32 slices) without too much photobleaching. Image stacks were reconstructed using Deltavision softWoRx 6.1.1 software with a Wiener filter of 0.002 using wavelength-specific experimentally determined OTF functions (see ref. [37]). […] Distribution of fluorescence intensity along the x-axis of bacteria was determined using a custom script implemented in MATLAB (version 2012a, MathWorks) (see ref. [40]). […] Intensity along the selected bacteria was measured 11 times between the bacterial end-points, each at a uniformly spaced offset from the bacterial long axis. The mean profile was calculated and normalized to the range 0–100 for comparison between bacteria. Diameter measurements correspond to the height of ring, calculated automatically through ImageJ software from each reconstructed and filtered image. A total of 30 cells were analysed per condition, in triplicate. […]

[7] = target: T5, C-terminal domain of Pseudomonas aeruginosa TolA (TolA^224–347) (Pseudomonas aeruginosa, UniProt P50600 224-347); experiment: FP
T5 chain: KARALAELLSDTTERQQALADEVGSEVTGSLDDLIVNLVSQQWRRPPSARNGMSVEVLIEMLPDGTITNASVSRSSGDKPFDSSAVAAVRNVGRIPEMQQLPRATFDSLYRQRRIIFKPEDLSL

[8] = target: T5, C-terminal domain of Pseudomonas …; experiment: NMR

Chain of TolB (P0A855 22-430): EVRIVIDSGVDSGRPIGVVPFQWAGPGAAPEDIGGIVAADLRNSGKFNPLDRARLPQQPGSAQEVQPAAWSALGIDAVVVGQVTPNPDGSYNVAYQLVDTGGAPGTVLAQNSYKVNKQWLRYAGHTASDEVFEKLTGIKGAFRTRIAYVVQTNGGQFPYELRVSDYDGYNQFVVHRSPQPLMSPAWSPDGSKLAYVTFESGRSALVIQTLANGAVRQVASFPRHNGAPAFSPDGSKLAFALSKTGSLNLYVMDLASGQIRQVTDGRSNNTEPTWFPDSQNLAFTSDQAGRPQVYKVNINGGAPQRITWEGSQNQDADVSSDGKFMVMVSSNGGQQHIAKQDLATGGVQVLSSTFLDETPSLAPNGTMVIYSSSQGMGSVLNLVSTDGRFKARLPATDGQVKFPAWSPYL
Chain of Pal (Escherichia coli) (P0A912 22-173): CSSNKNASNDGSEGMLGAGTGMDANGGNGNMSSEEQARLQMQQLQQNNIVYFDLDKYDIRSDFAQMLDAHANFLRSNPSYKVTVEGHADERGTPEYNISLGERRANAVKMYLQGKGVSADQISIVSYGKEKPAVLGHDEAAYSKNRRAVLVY
Chain of TolA (Escherichia coli) (P19934 whole entry): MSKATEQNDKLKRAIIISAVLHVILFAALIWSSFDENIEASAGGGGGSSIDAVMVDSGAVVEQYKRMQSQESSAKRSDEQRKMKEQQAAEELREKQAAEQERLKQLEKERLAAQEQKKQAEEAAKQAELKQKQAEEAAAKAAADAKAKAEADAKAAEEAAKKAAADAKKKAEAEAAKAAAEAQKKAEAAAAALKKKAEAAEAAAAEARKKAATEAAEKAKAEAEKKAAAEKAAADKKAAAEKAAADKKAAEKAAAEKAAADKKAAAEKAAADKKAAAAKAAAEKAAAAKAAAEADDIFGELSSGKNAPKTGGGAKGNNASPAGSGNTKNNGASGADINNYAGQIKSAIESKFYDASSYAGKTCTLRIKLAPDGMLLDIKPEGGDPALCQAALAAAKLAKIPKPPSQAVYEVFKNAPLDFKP

With `N#CC(C#N)=NNc1cccc(Cl)c1` [CCCP] the “effect on FRAP recovery” value ([1]; CCCP 0.1 mM) was “measurable effect”.

In the case of `CC[C@H](C)[C@H](NC(=O)[C@@H](NC(=O)[C@H](CC(C)C)NC(=O)[C@@H]1CCCN1C(=O)[C@H](CC(=O)O)NC(=O)[C@H](C)N)C(C)C)C(=O)N[C@@H](CO)C(=O)N[C@@H](CO)C(=O)NCC(=O)N[C@@H](CC(N)=O)C(=O)N[C@@H](CC(=O)O)C(=O)N[C@@H](CCCNC(=N)N)C(=O)N[C@@H](CCCCNC(=S)Nc1ccc2c(c1)C(=O)OC21c2ccc(O)cc2Oc2cc(O)ccc21)C(N)=O` [P. aeruginosa TolB22-33] (H-ADPLVISSGNDRK(FITC)-NH2; N-terminus and C-terminus assumed), the “improvement of TolB binding on deletion of the TolA helix” value [2] is reported as “three-fold”, the koff [3] is reported as 0.9 s⁻¹ and the koff [4] is reported as 1.4 s⁻¹. The “kon relative to wild-type complex” value ([4]; helix truncation versus wild-type TolA) was “three-fold faster”.

For `[N-]=[N+]=[N-].[Na+]` [sodium azide], the “effect on FRAP recovery” value ([1]; sodium azide 50 µg/µl) was “measurable effect”.

In the case of ADPLVISSGNDRA-NH2 [TolB22-34], the “TolA peaks perturbed by TolB peptide binding” value (TolA224-347) is reported as over 80%.

Molecule E. coli TolA C-terminal domain has a Kd [5] of 42 µM.

With “TolA224-344 (P. aeruginosa, lacking C-terminal α-helix)” the Kd [6] was 86 µM.

In the case of TolB (from UniProt P0A855), the Kd (Pal (Escherichia coli)) is listed as 0.03 µM and the Kd (TolA (Escherichia coli)) is listed as 40 µM.

With TolB I25A, I27A the “divisome recruitment of TolA-GFP (intensity distribution, ring diameter)” value (TolA-GFP at the divisome) was “no significant difference”.

For ADPLVISSGNDRAK(FITC) [P. aeruginosa TolB^22–34 fluorescein isothiocyanate (FITC)], the Kd [7] was 250 µM.

With ADPLVISSGNDRA-NH2 [P. aeruginosa TolB^22–34 peptide (the N-terminus of secreted TolB; the TolA box)] the Kd [8] was 220 µM.
